{"source": "patent EP3696281A1", "about": "“ARGINASE AS BIOMARKER AND DRUG TARGET FOR PCOS” (Johann Wolfgang Goethe-Universität Frankfurt am Main, priority 2019, dated 2020)", "key": {"arginase": {"tested_on": "arginase", "assay": "Arginase activity in platelets incubated with arginase inhibitor, then lysed (MAK112 kit)", "assay_type": "cell-based, human", "conditions": "30 minutes, P<0.05", "text": "Levels of ornithine (A), arginine (B), and the ratio of ornithine to arginine (C) in plasma from healthy donors or from PCOS patients, n= 22 (Student's t test). (D) Arginase activity in plasma from healthy donors or from PCOS patients, n=16 (Student's t test). (E) Levels of arginase-i in plasma from healthy donors or from PCOS patients, n=16 (Student's t test). (F) Levels of arginase-i in plasma from healthy donors or from PCOS patients in the presence or in the absence of microparticles, n=16 (ANOVA and Newman-Keuls post-test). (G) Levels of platelet-derived microparticles (PMPs) in plasma from healthy donors or from PCOS patients, n=17 (Student's t test). (H) Levels of arginase-i measured by flow cytometry in PMPs from healthy donors and from PCOS patients, n=17. […]\nGiven that platelets are the main source of plasma arginase in PCOS patients, the effect of arginase inhibitor on platelet arginase activity and function was assessed. […]\nArginase activity was determined in plasma or in platelets using commercially available kits (MAK112, Sigma, Steinheim, Germany), according to manufacturer's instructions."}, "washed human platelets": {"tested_on": "washed human platelets", "assay": "Aggregation of washed human platelets elicited by thrombin or U46619 (aggregometer)", "assay_type": "cell-based", "conditions": "5 minutes; for effect of pre-treatment with arginase inhibitor on arginine-mediated inhibition of platelet aggregation: pre-incubation with inhibitor (Nor-NOHA 100 µmol/L, 30 minutes), then arginine 1 mmol/L, thrombin or U46619; for thrombin or thromboxane A2 analogue-induced aggregation of platelets: arginine 1 mmol/L, alone", "text": "Levels of ornithine (A), arginine (B), and the ratio of ornithine to arginine (C) in plasma from healthy donors or from PCOS patients, n= 22 (Student's t test). (D) Arginase activity in plasma from healthy donors or from PCOS patients, n=16 (Student's t test). (E) Levels of arginase-i in plasma from healthy donors or from PCOS patients, n=16 (Student's t test). (F) Levels of arginase-i in plasma from healthy donors or from PCOS patients in the presence or in the absence of microparticles, n=16 (ANOVA and Newman-Keuls post-test). (G) Levels of platelet-derived microparticles (PMPs) in plasma from healthy donors or from PCOS patients, n=17 (Student's t test). (H) Levels of arginase-i measured by flow cytometry in PMPs from healthy donors and from PCOS patients, n=17.\nHuman platelets were obtained by centrifugation (900g, 7 minutes) of platelet-rich plasma, as described. […] The resulting platelet-poor plasma was collected and frozen at -80°C for further evaluation.\nPlatelet aggregation. Aggregation of washed human platelets (4x10^8platelets/mL) was measured using an 8-channel aggregometer (PAP8, Mölab, Germany)."}}, "data": [{"compound": "CCC[C@H](N)C(=O)O", "note": "[L-norvaline]", "values": [{"measurement": "arginase activity", "setting": "arginase; platelets incubated with L-norvaline 10 mmol/L", "result": "significantly inhibited arginase activity"}, {"measurement": "effect of pre-treatment with arginase inhibitor on arginine-mediated inhibition of platelet aggregation", "setting": "washed human platelets; platelets from PCOS patients", "result": "significantly revealed the inhibitory effects of arginine"}, {"measurement": "effect of pre-treatment with arginase inhibitor on arginine-mediated inhibition of platelet aggregation", "setting": "washed human platelets; platelets from healthy donors", "result": "did not have additional effect on arginine-mediated platelet inhibition"}]}, {"compound": "N=C(NO)NCC[C@H](N)C(=O)O", "note": "[NorNOHA, Nω-hydroxy-nor-L-arginine]", "values": [{"measurement": "arginase activity", "setting": "arginase; platelets incubated with nor-NOHA 100 µmol/L", "result": "significantly inhibited arginase activity"}, {"measurement": "effect of pre-treatment with arginase inhibitor on arginine-mediated inhibition of platelet aggregation", "setting": "washed human platelets; platelets from PCOS patients", "result": "significantly revealed the inhibitory effects of arginine"}, {"measurement": "effect of pre-treatment with arginase inhibitor on arginine-mediated inhibition of platelet aggregation", "setting": "washed human platelets; platelets from healthy donors", "result": "did not have additional effect on arginine-mediated platelet inhibition"}]}, {"compound": "N=C(N)NCCC[C@H](N)C(=O)O", "note": "[arginine]", "values": [{"measurement": "thrombin or thromboxane A2 analogue-induced aggregation of platelets", "setting": "washed human platelets; platelets from PCOS patients", "result": "did not affect the aggregation"}, {"measurement": "thrombin or thromboxane A2 analogue-induced aggregation of platelets", "setting": "washed human platelets; platelets from healthy donors", "result": "inhibited thrombin or thromboxane A2 analogue-induced aggregation"}]}]}
